Read-outs that look alike come from different tables or passages of the source.
Assays:
[1] = test system: human eosinophils; assay: Biosynthesis of 15-LO metabolites by human eosinophils; conditions: for Times more metabolite in eosinophils than in neutrophils: same donors, combination of LA, 1-LG and LEA at 3 µM each, 5 min; for Time of maximal levels of 15-lipoxygenase metabolite / Delay before metabolism into 15-lipoxygenase counterpart: 3 µM substrate; for Time of maximal levels of 15-lipoxygenase metabolite: longest time point studied
[2] = target: T1, human recombinant 15-LO-1 (Homo sapiens, UniProt P16050); set-up: method as in PMID 33915294; conditions: previous publication; cited from earlier work
T1 sequence (P16050 1-662): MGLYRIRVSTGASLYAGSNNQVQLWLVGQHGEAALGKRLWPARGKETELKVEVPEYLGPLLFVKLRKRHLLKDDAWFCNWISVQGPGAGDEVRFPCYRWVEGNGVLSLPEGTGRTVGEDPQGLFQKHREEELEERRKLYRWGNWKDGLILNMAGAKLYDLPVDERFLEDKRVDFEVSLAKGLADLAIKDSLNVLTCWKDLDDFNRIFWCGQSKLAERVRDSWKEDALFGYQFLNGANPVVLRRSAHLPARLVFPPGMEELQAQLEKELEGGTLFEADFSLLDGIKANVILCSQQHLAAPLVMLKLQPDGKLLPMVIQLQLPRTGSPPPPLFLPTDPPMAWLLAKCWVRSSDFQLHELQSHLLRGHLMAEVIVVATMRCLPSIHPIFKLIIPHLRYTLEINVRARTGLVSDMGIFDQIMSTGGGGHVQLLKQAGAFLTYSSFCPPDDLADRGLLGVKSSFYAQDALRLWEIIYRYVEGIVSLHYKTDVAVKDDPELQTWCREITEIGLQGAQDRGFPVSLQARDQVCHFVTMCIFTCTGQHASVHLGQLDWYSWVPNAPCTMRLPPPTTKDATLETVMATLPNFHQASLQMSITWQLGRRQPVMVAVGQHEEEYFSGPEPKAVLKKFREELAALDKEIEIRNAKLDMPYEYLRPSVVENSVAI

[3] = test system: human eosinophils; assay: Hydrolysis/stability of added 13-HODE-EA in eosinophil suspensions; format: in vitro ADME; conditions: eosinophils 10^6 cells/mL
[4] = target: T2, human recombinant 15-LO-2 (Homo sapiens, UniProt O15296); set-up: method as in PMID 33915294; conditions: previous publication; cited from earlier work
T2 sequence (O15296 1-676): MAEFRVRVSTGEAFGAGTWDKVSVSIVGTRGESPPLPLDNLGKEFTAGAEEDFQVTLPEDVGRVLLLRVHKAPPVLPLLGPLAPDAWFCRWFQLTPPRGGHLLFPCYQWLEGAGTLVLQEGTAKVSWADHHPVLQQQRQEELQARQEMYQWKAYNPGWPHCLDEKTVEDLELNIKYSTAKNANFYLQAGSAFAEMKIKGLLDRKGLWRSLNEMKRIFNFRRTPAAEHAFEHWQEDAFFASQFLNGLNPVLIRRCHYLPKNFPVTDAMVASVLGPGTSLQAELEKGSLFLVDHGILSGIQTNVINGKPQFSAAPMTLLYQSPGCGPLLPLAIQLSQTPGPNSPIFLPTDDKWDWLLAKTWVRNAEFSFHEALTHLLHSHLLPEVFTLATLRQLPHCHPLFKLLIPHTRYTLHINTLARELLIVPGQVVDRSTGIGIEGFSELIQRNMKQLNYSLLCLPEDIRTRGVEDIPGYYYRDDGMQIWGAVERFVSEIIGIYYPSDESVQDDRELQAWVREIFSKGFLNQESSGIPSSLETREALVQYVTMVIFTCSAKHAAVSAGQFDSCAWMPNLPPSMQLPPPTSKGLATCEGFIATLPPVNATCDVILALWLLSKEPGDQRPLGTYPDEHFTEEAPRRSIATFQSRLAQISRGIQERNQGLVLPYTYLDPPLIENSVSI

[5] = test system: human neutrophils; assay: Hydrolysis/stability of added 13-HODE-EA in neutrophil suspensions; format: in vitro ADME; conditions: neutrophils 5 × 10^6 cells/mL
[6] = test system: human neutrophils; assay: Biosynthesis of 15-LO metabolites by human neutrophils
[7] = target: T3, human recombinant TRPV1 (Homo sapiens, UniProt Q8NER1); assay: TRPV1-mediated intracellular calcium elevation; format: cell-based; conditions: mean ± SD; for IC50: assayed using 100 nM capsaicin, read-out: Desensibilization (IC50); for Emax: read-out: Efficacy (% Max Response)
T3 construct: expressed in transfected cells
From the text: (§1) These assays we preformed exactly as described in [21].

[8] = target: human recombinant CB1 receptor (Homo sapiens, UniProt P21554); assay: CB1 receptor binding assay; conditions: mean ± SD; for CB1 Receptor Max Tested (% Displacement): 10 µM
Procedure: (§2) The analysis of CB1 and CB2 receptor binding was performed exactly as described in [21].

[9] = target: human recombinant CB2 receptor (Homo sapiens, UniProt P34972); assay: CB2 receptor binding assay; conditions: mean ± SD; for CB2 Receptor Max Tested (% Displacement): 10 µM
Procedure: as §2

[10] = target: T4, PPAR-α (Homo sapiens, UniProt Q07869); assay: PPAR-α functional (transcriptional) activity assay kit; format: cell-based; conditions: 30 µM, overnight
T4 construct: purchased
T4 sequence (Q07869 1-468): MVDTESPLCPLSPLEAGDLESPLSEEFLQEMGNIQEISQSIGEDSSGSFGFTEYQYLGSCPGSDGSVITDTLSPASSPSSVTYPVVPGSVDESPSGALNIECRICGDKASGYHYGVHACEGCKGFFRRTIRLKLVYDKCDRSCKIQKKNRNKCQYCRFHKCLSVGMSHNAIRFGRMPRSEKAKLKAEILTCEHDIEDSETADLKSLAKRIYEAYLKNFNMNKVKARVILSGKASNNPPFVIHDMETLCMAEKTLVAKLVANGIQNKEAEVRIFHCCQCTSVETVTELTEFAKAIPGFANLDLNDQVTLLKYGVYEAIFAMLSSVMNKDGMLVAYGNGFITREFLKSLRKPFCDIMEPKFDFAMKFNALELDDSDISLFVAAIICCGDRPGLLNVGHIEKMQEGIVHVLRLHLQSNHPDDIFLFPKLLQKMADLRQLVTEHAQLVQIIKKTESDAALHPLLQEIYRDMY
Procedure: as §1
(§3) Figure 10 Impact of 13-HODE and 13-HODE-G on PPAR activity. Cells were incubated with 30 µM 13-HODE, 13-HODE-G, or OEA overnight and PPAR activity was measured using the PPAR assay kits according to the manufacturers’ instructions. Rosiglitazone (10 µM) and GW 590735 (100 nM) were utilized as positive controls for the (A) PPAR-γ and (B) PPAR-α assays, respectively. Data represent the mean (± SEM) of three (PPAR-γ) or five (PPAR-α) experiments, each performed in triplicates. p values were obtained by performing a 2-way ANOVA with a Sidak multiple comparison tests. **** p < 0.0001, *** p < 0.001. ns: p > 0.05.

[11] = target: T5, PPAR-γ (Homo sapiens, UniProt P37231); assay: PPAR-γ functional (transcriptional) activity assay kit; format: cell-based; conditions: 30 µM, overnight
T5 construct: purchased
T5 sequence (P37231 1-505): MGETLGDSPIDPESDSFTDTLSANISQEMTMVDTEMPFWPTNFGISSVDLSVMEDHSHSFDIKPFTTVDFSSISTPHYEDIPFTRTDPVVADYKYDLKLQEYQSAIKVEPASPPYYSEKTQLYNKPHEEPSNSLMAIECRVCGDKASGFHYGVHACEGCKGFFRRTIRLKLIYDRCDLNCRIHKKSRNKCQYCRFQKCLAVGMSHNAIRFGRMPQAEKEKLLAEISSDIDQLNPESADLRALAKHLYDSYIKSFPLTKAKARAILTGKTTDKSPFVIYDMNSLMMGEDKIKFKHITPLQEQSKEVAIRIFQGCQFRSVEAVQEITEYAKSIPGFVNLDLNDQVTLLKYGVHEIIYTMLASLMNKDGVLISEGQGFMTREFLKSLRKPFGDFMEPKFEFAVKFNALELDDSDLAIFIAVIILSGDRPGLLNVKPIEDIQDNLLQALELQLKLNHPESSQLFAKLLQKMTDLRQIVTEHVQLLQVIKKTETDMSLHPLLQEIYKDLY
Procedure: as §1, §3

[12] = Detection of 13-HODE-G in human samples by LC-MS/MS; conditions: mean ± SEM, n = 5
[13] = target: T2, human recombinant 15-LO-2; assay: Metabolism of substrates by recombinant 15-LO-2, LC-MS/MS; format: biochemical; conditions: 10 µM 1-LG, 15 min, 37 °C
Procedure: (§4) Recombinant human 15-LO-1 and 15-LO-2 enzymes were added to HEPES 25 mM + 0.01% Triton (14 μg/mL for 15-LO-1, 56 μg/mL for 15-LO-2). A total of 10 μM of the fatty acids were added to the buffer for 5 min (15-LO-1) or 15 min (15-LO-2), at 37 °C. The final volume of the reaction mix was 100 µL. After the incubation, 50 µL of NaBH4 1M was added to the reaction, for 5 min at 37 °C. The reactions were stopped by adding 0.5 mL of cold (−20 °C) methanol +0.01% acetic acid and kept at −30 °C until further processing.
(§5) Figure 3 Metabolism of 1-LG, LA and LEA by human recombinant 15-LO-1 and 15-LO-2. Human recombinant 15-LO-1 (A–D) or 15-LO-2 (E–H) were incubated at 37 °C in HEPES 25 mM containing 0.01% triton. A total of 10 μM of LA (A,D,E,H); 1-LG (B,D,F,H) or LEA (D,H) were added for 5 min (15-LO-1) or 15 min (15-LO-2). NaBH4 was then added for 5 min and incubations were stopped by the addition of 0.5 mL of cold (−20 °C) MeOH containing 0.01% acetic acid and the internal standards. Samples then were processed for LC-MS/MS analyses as described in methods. Results are the mean (±SEM) of 3 independent experiments.

[14] = target: T1, human recombinant 15-LO-1; assay: Metabolism of substrates by recombinant 15-LO-1, LC-MS/MS; format: biochemical; conditions: 10 µM 1-LG, 5 min, 37 °C
Procedure: as §4, §5

[15] = test system: human neutrophils; assay: Inhibition of 13-HODE-G and 13-HODE-EA biosynthesis by 15-LO inhibitors in neutrophils; format: cell-based; conditions: inhibitor 10 µM 5 min, then 3 µM LEA or 1-LG 5 min
From the text: Figure 9 Inhibition of 13-HODE-G and 13-HODE-EA biosynthesis by 15-LO inhibitors in human eosinophils and neutrophils. […] Samples then were processed for LC-MS/MS analyses as described in methods. Results are the mean (±SEM) of 4 independent experiments.

[16] = intracellular calcium elevation

human recombinant CB2 receptor, sequence (P34972 whole entry): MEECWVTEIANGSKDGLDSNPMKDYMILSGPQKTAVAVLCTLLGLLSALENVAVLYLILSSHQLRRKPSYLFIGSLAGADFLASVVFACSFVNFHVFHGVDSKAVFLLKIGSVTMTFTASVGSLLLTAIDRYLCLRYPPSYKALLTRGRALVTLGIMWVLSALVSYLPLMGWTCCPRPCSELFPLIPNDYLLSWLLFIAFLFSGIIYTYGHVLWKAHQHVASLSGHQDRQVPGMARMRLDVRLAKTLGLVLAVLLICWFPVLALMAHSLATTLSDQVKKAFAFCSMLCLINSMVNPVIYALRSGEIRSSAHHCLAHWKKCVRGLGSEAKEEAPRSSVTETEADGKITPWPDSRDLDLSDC
human recombinant CB1 receptor, sequence (P21554 whole entry): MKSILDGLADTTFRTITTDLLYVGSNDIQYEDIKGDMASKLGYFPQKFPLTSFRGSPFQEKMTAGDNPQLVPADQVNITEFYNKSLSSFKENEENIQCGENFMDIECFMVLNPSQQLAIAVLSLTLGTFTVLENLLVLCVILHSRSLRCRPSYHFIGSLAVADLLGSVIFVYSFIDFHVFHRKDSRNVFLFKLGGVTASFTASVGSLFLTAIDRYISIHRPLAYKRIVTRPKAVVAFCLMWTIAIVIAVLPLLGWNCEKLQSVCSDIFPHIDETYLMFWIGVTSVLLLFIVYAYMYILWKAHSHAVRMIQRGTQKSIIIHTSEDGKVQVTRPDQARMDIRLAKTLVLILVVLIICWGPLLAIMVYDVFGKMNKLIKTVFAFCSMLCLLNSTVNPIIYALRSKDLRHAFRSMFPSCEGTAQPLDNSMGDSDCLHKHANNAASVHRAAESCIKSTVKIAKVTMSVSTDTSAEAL
T3 sequence (Q8NER1 whole entry): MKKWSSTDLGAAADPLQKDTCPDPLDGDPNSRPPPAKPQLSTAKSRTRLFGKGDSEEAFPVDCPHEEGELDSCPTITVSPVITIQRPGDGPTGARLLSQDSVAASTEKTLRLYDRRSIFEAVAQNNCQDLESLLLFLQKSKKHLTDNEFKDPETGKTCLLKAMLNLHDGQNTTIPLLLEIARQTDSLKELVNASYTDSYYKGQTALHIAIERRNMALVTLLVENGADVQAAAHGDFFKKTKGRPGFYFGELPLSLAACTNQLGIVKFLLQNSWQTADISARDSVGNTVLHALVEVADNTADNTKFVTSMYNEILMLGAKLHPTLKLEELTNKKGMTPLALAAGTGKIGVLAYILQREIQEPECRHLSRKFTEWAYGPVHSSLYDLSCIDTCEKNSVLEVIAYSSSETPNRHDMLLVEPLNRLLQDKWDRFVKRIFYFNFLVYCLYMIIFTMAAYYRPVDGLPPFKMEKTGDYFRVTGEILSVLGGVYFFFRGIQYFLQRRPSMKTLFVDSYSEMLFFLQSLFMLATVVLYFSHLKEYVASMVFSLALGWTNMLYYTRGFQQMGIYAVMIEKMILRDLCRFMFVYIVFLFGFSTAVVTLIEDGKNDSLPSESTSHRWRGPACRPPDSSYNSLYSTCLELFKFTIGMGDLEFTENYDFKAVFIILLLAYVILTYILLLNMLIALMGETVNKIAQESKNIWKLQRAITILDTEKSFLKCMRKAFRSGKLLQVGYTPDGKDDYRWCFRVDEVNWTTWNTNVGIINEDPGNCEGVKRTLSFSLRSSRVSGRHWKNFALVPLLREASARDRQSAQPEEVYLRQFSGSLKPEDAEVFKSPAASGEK

Compound | Times more metabolite in eosinophils than in neutrophils [1] | Time of maximal levels of 15-lipoxygenase metabolite [1] | IC50 [7] | Emax [7, 16] | CB1 Receptor Max Tested (% Displacement) [8] | IC50 [8] | Ki [8] | CB2 Receptor Max Tested (% Displacement) [9] | IC50 [9] | Ki [9] | other results
CCCCC[C@H](O)/C=C/C=C\CCCCCCCC(=O)NCCO [13-HODE-EA, N-13-hydroxy-octodecadienoyl-ethanolamine] | ~ 500 times | – | – | – | – | – | – | – | – | – | 13-HODE-EA/13-HODE ratio [2]: ~ 3.5; Remaining after 15 min [3]: 90%; 13-HODE-EA/13-HODE ratio [4]: ~ 3; Remaining after 15 min [5]: 60%
CCCCC/C=C\C/C=C\CCCCCCCC(=O)O [LA, Linoleic acid] | – | 15 min | – | – | – | – | – | – | – | – | Time of peak 13-HODE biosynthesis ([6]; 3 µM LA): 10 s; Time to biosynthesis of 13-HODE derivatives ([6]; 3 µM substrate): 10 to 30 s
CCCCC/C=C\C/C=C\CCCCCCCC(=O)NCCO [LEA, N-linoleoyl-ethanolamine] | – | 15 min | – | – | – | – | – | – | – | – | Delay before metabolism into 15-lipoxygenase counterpart [1]: ~ 1 min; Ratio 13-HODE/13-HODE-EA [6]: 2.67 ± 0.590; Time to biosynthesis of 13-HODE derivatives [6]: 10 to 30 s
CCCCC[C@H](O)/C=C/C=C\CCCCCCCC(=O)O [13-HODE, 13(S)-hydroxy-octodecadienoic acid] | ~ 30 times | – | > 50 µM | < 10% | 10 µM (7.56 ± 2.3) % | > 10 µM | > 10 µM | 10 µM (38.34 ± 5.4) % | > 10 µM | > 10 µM | Stimulation of PPAR-α transcriptional activity [10]: robust effect
CCCCC[C@H](O)/C=C/C=C\CCCCCCCC(=O)OCC(O)CO (stereo partly shown) [13-HODE-G, 13-hydroxy-octodecadienoyl-glycerol] | ~ 60 times | – | > 50 µM | < 10% | 10 µM (18.90 ± 6.1) % | > 10 µM | > 10 µM | 10 µM (33.58 ± 21.3) % | > 10 µM | > 10 µM | Stimulation of PPAR-γ transcriptional activity [11]: did not stimulate; Level in human epidermis samples [12]: 21.9 ± 6.2 fmol/mg tissue; Stimulation of PPAR-α transcriptional activity [10]: did not stimulate
CCCCC/C=C\C/C=C\CCCCCCCC(=O)OCC(O)CO (stereo not shown) [1-LG, 1-linoleoyl-glycerol] | – | 15 min | 2.7 ± 0.3 µM | 46.5 ± 0.9% | 10µM (95.8 ± 16.4) % | 2.81 ± 0.85 µM | 0.31 ± 0.15 µM | 10 µM (28.45 ± 9.4) % | > 10 µM | > 10 µM | Delay before metabolism into 15-lipoxygenase counterpart [1]: ~ 1 min; EC50 ([7]; intracellular calcium elevation, read-out: Potency (EC50)): 0.23 ± 0.02 µM; Efficacy of the reaction (1-LG to 13-HODE-G) [13]: 40%; Efficacy of the reaction (1-LG to 13-HODE-G) [14]: 23%; Time to biosynthesis of 13-HODE derivatives ([6]; 3 µM substrate): 10 to 30 s
CC(Cc1ccc(O)c(O)c1)C(C)Cc1ccc(O)c(O)c1 (stereo not shown) [NDGA] | – | – | – | – | – | – | – | – | – | – | Inhibition of biosynthesis of the investigated 15-LO metabolites [15]: did not inhibit

From article PMC8470279, “Biosynthesis of the Novel Endogenous 15-Lipoxygenase Metabolites N-13-Hydroxy-octodecadienoyl-ethanolamine and 13-Hydroxy-octodecadienoyl-glycerol by Human Neutrophils and Eosinophils” (Cells, 2021)
